Reference: US4140767A, “Somatostatin analogs” (Merck & Co., Inc., priority 1977, dated 1979)

Experiments:
plasma glucagon = test: Inhibition of glucagon: lowering of portal vein glucagon in anesthetized rats; format: in vivo, rat; conditions: anesthetized male Sprague-Dawley rats, external jugular vein administration, portal vein blood after 5 minutes; somatostatin = 1; range in brackets
Experimental: (§1) The relative potencies of somatostatin analogs on the lowering of plasma insulin and glucagon are determined by the following method:
(§2) Analogs of somatostatin were […] to somatostatin in their ability to lower the levels of portal vein glucagon and insulin in anesthetized rats. Male Sprague-Dawley rats (Charles River CD) weighing 160-200 grams were anesthetized with urethane (150 mg./100 gm.) Saline or peptides were administered via the external jugular vein. After 5 minutes the portal vein was exposed and blood was collected via syringes containing 3 mg. EDTA and placed in chilled tubes containing 100 μl. of Trasylol (obtained from FBA Pharmaceuticals) for subsequent hormone analysis. Plasma levels of glucagon were determined by the method of Faloona, G. R., and Unger, R. H. "Glucagon" in Methods of Hormone Radioimmunoassay, eds. […] Plasma levels of insulin were determined by a modification of the procedure of Herbert, V., Lau, K. S., Gottlieb, C. […]
(§3) Doses were randomized between groups of animals (6 rats/group). Potency values were determined by four, six, or 8 point bioassays with somatostatin as the reference standard. Relative potency values were calculated by a relative potency formula for parallel line bioassays as described in Finney, D. J. Statistical Method in Biological Assay (Charles Griffin and Co., Ltd., London) Chap. […]

Rat pituicytes = test: Growth hormone inhibition in vitro; format: cell-based; conditions: rat pituicytes after 4 days in culture, 4 hours incubation; somatostatin = 1; range in brackets
Experimental: Rat pituicytes were isolated according to the procedures of Vale and Grant "In vitro Pituitary Hormone Secretion Assay for Hypophysiotropic Substances" in Methods in Enzymology. Vo. XXXVII, eds. O'Malley, B. W. and Hardman, J. G. (Academic Press, Inc., New York) pp. 5-93 (1975).
After 4 days in culture, the cells were washed and incubated for 4 hours in Dulbecco-modified Eagle's medium in the presence or absence of graded doses of each analog or somatostatin. The medium was then collected for subsequent growth hormone determination by a double antibody radioimmunoassay for rat growth hormone.
(§4) Doses were randomized between groups of animals (6 rats/group). Potency values were determined by four, six, or 8 point bioassays with somatostatin as the reference standard. Relative potency values were calculated by a relative potency formula for parallel line bioassays as described in Finney, D. J. Statistical Method in Biological Assay (Charles Griffin and Co., Ltd., London) Chap. 4 pp. 99-138 (1964).

plasma insulin = test: Inhibition of insulin: lowering of portal vein insulin in anesthetized rats; format: in vivo, rat; conditions: anesthetized male Sprague-Dawley rats, external jugular vein administration, portal vein blood after 5 minutes; somatostatin = 1; range in brackets
Experimental: as §1, §2, §3

growth hormone release = test: Inhibition of pentobarbital stimulated growth hormone release in vivo; parameters: species or system rat; conditions: rats, sodium pentobarbitol 17 mg./Kg., analog subcutaneously, blood after 15 minutes; somatostatin = 1; range in brackets
Experimental: Somatostatin analogs were compared to somatostain in their ability to inhibit the release of growth hormone in pentobarbital stimulated rats; a modification of the procedure of Brazeau et al. Endocrinology, 94, 184-187 (1974) was empaloyed. Rats were lightly etherized and sodium pentobarbitol (17 mg./Kg.) was injected into the exposed Saphenous vein; somatostatin or analog was simultaneously injected subcutaneously. After 15 minutes the animals were bled via the orbital sinus and blood collected for subsequent growth hormone analysis.
as §4

C[C@H](N)C(=O)NCC(=O)N[C@H]1CSSC[C@@H](C(=O)O)NC(=O)[C@H](CO)NC(=O)[C@H]([C@@H](C)O)NC(=O)[C@H](Cc2ccccc2)NC(=O)[C@H]([C@@H](C)O)NC(=O)[C@H](CCCCN)NC(=O)[C@H](Cc2c[nH]c3ccccc23)NC(=O)[C@H](Cc2ccccc2)NC(=O)[C@H](Cc2ccccc2)NC(=O)[C@H](CC(N)=O)NC(=O)[C@H](CCCCN)NC1=O [Somatostatin]
1: Inhibition of Glucagon; potency relative to somatostatin (plasma glucagon) | Growth Hormone Inhibition In Vitro; potency relative to somatostatin (Rat pituicytes) | Inhibition of Insulin; potency relative to somatostatin (plasma insulin) | Inhibition of Pentobarbital Stimulated Growth Hormone Release In Vivo; potency relative to somatostatin (growth hormone release)
